The target in this assay is T1, CFTR (Homo sapiens, UniProt P13569, DEL508-508).
T1 construct: endogenous in cells; host or cells: primary human bronchial epithelial cells from CF subjects (F508del/MF-HBE), differentiated at air-liquid interface
Kind of assay: HBE2 assay: Ussing chamber assay of CFTR-mediated short-circuit currents. The format is cell-based. To be noted: F508del/MF-HBE cells, 18-24 hours, 20% human serum; for Emax: read-out: HBE2 Max activity (%). As to the method:
Ussing Chamber Assay of CFTR-Mediated Short-Circuit Currents
After four days the apical media was removed, and the cells were grown at an air liquid interface for >14 days prior to use.
To isolate the CFTR-mediated short-circuit (ISC) current, F508del/MF-HBE grown on Costar® Snapwell™ cell culture inserts were mounted in an Ussing chamber and the transepithelial ISC was measured under voltage-clamp recording conditions (Vhold=0 mV) at 37° C. […] The CFTR-mediated ISC (μA/cm^2) for each condition was determined from the peak forskolin response to the steady-state current following inhibition.
Identification of Corrector Compounds
The activity of the CFTR corrector compounds on the CFTR-mediated ISC was determined in Ussing chamber studies as described above.

[1] abbreviates: 3 μM corrector, with 44 nM potentiator.

pEC50: −log10 of the molar value. Bounds are passed on as bounds.

T1 sequence (P13569 with tags, fused parts or gaps DEL508-508): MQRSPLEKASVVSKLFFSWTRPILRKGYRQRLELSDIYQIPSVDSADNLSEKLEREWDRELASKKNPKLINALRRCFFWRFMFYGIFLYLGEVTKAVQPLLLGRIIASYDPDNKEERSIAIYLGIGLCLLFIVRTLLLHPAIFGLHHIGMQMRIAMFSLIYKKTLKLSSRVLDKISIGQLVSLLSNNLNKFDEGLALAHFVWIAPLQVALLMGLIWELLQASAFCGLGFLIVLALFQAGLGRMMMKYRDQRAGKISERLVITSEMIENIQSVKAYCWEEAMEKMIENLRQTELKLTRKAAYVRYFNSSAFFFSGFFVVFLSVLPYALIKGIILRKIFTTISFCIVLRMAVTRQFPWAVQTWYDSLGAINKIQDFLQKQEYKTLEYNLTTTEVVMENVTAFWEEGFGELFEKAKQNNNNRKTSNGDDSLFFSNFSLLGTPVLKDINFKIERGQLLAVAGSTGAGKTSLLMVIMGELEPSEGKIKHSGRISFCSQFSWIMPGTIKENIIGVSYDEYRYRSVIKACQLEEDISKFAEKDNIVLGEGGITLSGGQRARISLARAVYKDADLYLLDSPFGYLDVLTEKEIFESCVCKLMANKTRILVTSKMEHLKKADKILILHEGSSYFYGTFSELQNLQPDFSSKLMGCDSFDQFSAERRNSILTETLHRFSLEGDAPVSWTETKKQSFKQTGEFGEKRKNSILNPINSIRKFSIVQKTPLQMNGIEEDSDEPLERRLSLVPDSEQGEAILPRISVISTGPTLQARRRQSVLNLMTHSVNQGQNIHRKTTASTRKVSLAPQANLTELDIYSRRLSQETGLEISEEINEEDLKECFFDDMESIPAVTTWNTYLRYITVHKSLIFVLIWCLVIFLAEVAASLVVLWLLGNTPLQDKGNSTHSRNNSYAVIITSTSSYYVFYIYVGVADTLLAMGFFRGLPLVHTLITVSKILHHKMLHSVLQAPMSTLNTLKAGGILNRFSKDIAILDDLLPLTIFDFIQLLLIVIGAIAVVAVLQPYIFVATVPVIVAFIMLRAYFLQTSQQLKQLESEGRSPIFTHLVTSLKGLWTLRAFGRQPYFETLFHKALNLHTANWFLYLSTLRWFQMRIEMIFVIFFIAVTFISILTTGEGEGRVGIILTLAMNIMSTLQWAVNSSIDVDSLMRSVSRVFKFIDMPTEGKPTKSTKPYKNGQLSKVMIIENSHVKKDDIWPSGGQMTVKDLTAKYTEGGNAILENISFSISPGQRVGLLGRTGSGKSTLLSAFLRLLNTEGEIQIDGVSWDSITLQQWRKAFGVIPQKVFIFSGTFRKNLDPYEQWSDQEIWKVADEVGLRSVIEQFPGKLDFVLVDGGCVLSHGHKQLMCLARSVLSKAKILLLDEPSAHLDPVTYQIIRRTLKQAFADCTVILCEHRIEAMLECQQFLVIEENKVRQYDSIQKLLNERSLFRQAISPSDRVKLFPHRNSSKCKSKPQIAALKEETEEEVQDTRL

For `CC[C@@H]1CCN1c1cncc(CN2C(=O)c3cccc(c3)S(=O)(=O)Nc3nc(cc(-c4c(C)cccc4C)n3)OC[C@H]2CC(C)(C)C)n1` [Compound 1721], the “HBE2 Activity at 3 μM (%)” value under setting [1] was “+++ (+++ is >60+)”.
As for `CCOc1cnc(CN2C(=O)c3cccc(c3)S(=O)(=O)Nc3nc(cc(-c4c(C)cccc4C)n3)OC[C@H]2CCC(C)C)nc1` [Compound 1599], the “HBE2 Activity at 3 μM (%)” value (3 μM, with 44 nM potentiator) is on record as “+++ (+++ is >60+)”.
Same read-out and setting: then `COC(=O)N(C)c1cccc(CN2C(=O)c3cccc(c3)S(=O)(=O)Nc3nc(cc(-c4c(C)cccc4C)n3)OC[C@H]2CC(C)(C)C)n1` [Compound 1584], with “+++ (+++ is >60+)”.
Same read-out and setting: to `CCN(C)c1cncc(CN2C(=O)c3cccc(c3)S(=O)(=O)Nc3nc(cc(-c4c(C)cccc4C)n3)OC[C@H]2CC(C)(C)C)n1` [Compound 1695] belongs “+++ (+++ is >60+)”.
Take `Cc1cccc(C)c1-c1cc2nc(n1)NS(=O)(=O)c1cccc(c1)C(=O)N(Cc1cnc3cc(C(C)C)oc3n1)[C@H](CC(C)(C)C)CO2` [Compound 1882]: the “HBE2 Activity at 3 μM (%)” value under setting [1] is reported as “+++ (+++ is >60+)”.
The same measure, in the same setting: to `Cc1cccc(C)c1-c1cc2nc(n1)NS(=O)(=O)c1cccc(c1)C(=O)N(Cc1cncc(N3CCC34CCC4)n1)[C@H](CCC(C)(C)C)CO2` [Compound 1837] belongs “+++ (+++ is >60+)”.
Same read-out and setting: to `Cc1cccc(C)c1-c1cc2nc(n1)NS(=O)(=O)c1cccc(c1)C(=O)N(Cc1cncc(N3CCCC[C@H]3C)n1)[C@H](CC1CC1)CO2` [Compound 1792] belongs “+++ (+++ is >60+)”.
Regarding `Cc1cccc(C)c1-c1cc2nc(n1)NS(=O)(=O)c1cccc(c1)C(=O)N(Cc1cccc([C@@H](C)N3CCCC3)n1)[C@H](CC(C)(C)C)CO2` [Compound 1588], where the note is “3 μM, with 44 nM potentiator”, the “HBE2 Activity at 3 μM (%)” value was “+++ (+++ is >60+)”.
The same measure, in the same setting: to `Cc1cccc(C)c1-c1cc2nc(n1)NS(=O)(=O)c1cccc(c1)C(=O)N(Cc1nc(N(C)C3CCC3)cnc1C)[C@H](CC(C)(C)C)CO2` [Compound 1678] belongs “+++ (+++ is >60+)”.
With `Cc1cccc(C)c1-c1cc2nc(n1)NS(=O)(=O)c1cccc(c1)C(=O)N(Cc1cncc(N(C)C(C)C)n1)[C@H](CCC(C)C)CO2` [Compound 1771], the “HBE2 Activity at 3 μM (%)” value under setting [1] is “+++ (+++ is >60+)”.
For `COCC1CCN1c1cncc(CN2C(=O)c3cccc(c3)S(=O)(=O)Nc3nc(cc(-c4c(C)cccc4C)n3)OC[C@H]2COC2CC2)n1` (stereo in doubt) [Compound 1894], the “HBE2 Activity at 3 μM (%)” value under setting [1] is recorded as “+++ (+++ is >60+)”.
Take `Cc1cccc(C)c1-c1cc2nc(n1)NS(=O)(=O)c1cccc(c1)C(=O)N(Cc1ccn([C@H](C)C3CCOCC3)n1)[C@H](CC(C)(C)C)CO2` (stereo in doubt) [Compound 1456]: the “HBE2 Activity at 3 μM (%)” value (3 μM, with 44 nM potentiator) is listed as “+++ (+++ is >60+)”.
On to `Cc1cccc(C)c1-c1cc2nc(n1)NS(=O)(=O)c1cccc(c1)C(=O)N(Cc1cncc(N3C[C@H]4CCCCC43)n1)[C@H](CC(C)(C)C)CO2` (stereo in doubt) [Compound 1799], for which the “HBE2 Activity at 3 μM (%)” value under setting [1] is “+++ (+++ is >60+)”.
The same measure, in the same setting: to `Cc1cccc(C)c1-c1cc2nc(n1)NS(=O)(=O)c1cccc(c1)C(=O)N(Cc1cncc(N(C)C3CCC3)n1)[C@@H]1CCN(CCC(C)(C)C)C[C@H]1O2` [Compound 1766] belongs “+++ (+++ is >60+)”.
The same measure, in the same setting: then `Cc1cccc(C)c1-c1cc2nc(n1)NS(=O)(=O)c1cccc(c1)C(=O)N(Cc1cncc(N(C)C3CCC3)c1)[C@H](CC(C)(C)C)CO2` [Compound 1927], with “+++ (+++ is >60+)”; and `Cc1cccc(C)c1-c1cc2nc(n1)NS(=O)(=O)c1cccc(c1)C(=O)N(Cc1cncc(N(C)C3CCC3)n1)[C@H](CC(C)C)CCO2` [Compound 1770], with “+++ (+++ is >60+)”.
Same read-out and setting: to `Cc1cccc(C)c1-c1cc2nc(n1)NS(=O)(=O)c1cccc(c1)C(=O)N(Cc1cnc3cc(C(C)C)n(C)c3n1)[C@H](CC1CC1)CO2` [Compound 1820] belongs “+++ (+++ is >60+)”.
On to `Cc1cccc(C)c1-c1cc2nc(n1)NS(=O)(=O)c1cccc(c1)C(=O)N(Cc1cncc(N3C(=O)CCC3C(C)C)n1)[C@H](CC(C)(C)C)CO2` (stereo in doubt) [Compound 1675], for which the “HBE2 Activity at 3 μM (%)” value (3 μM, with 44 nM potentiator) is recorded as “+++ (+++ is >60+)”.
As usually defined, the pEC50 is the negative decadic logarithm of the EC50, by convention in mol/L. Take `CCN(c1cccc(CN2C(=O)c3cccc(c3)S(=O)(=O)Nc3nc(cc(-c4c(C)cccc4C)n3)OC[C@H]2CC(C)(C)C)n1)C1CCC1` [Compound 1587]: the “HBE2 Activity at 3 μM (%)” value (3 μM, with 44 nM potentiator) is on record as “+++ (+++ is >60+)”. In addition, under “with 44 nM potentiator”, the pEC50 was more than 6.00 and the Emax was more than 60%.
As for `CC[C@H]1CCN1c1cncc(CN2C(=O)c3cccc(c3)S(=O)(=O)Nc3nc(cc(-c4c(C)cccc4C)n3)OC[C@H]2CCC(C)(C)C)n1` [Compound 1864], under setting [1], the “HBE2 Activity at 3 μM (%)” value is listed as “+++ (+++ is >60+)”.
Same read-out and setting: to `CCN(CCOC)c1cncc(CN2C(=O)c3cccc(c3)S(=O)(=O)Nc3nc(cc(-c4c(C)cccc4C)n3)OC[C@H]2CCC(C)(C)C)n1` [Compound 1811] belongs “+++ (+++ is >60+)”; to `CCN(c1cncc(CN2C(=O)c3cccc(c3)S(=O)(=O)Nc3nc(cc(-c4c(C)cccc4C)n3)OC[C@H]2COC2CC2)n1)C1CCC1` [Compound 1925], “+++ (+++ is >60+)”.
On to `Cc1cccc(C)c1-c1cc2nc(n1)NS(=O)(=O)c1cccc(c1)C(=O)N(Cc1cncc(N(C)CCOC(C)(C)C)n1)[C@H](CC(C)(C)C)CO2` [Compound 1650], for which the “HBE2 Activity at 3 μM (%)” value (3 μM, with 44 nM potentiator) is “+++ (+++ is >60+)”.
Same read-out and setting: then `CC[C@@H](C)Oc1cnc(CN2C(=O)c3cccc(c3)S(=O)(=O)Nc3nc(cc(-c4c(C)cccc4C)n3)OC[C@H]2CC2CCC2)nc1` [Compound 1556], with “+++ (+++ is >60+)”.
In the case of `CCC(C)(C)C[C@@H]1COc2cc(-c3c(C)cccc3C)nc(n2)NS(=O)(=O)c2cccc(c2)C(=O)N1Cc1cncc(N2CC[C@H]2C)n1` [Compound 1861], under setting [1], the “HBE2 Activity at 3 μM (%)” value is listed as “+++ (+++ is >60+)”.
Turning to `Cc1cccc(C)c1-c1cc2nc(n1)NS(=O)(=O)c1cccc(c1)CN(Cc1ncc(OC(C)C)cn1)[C@H](CC(C)(C)C)CO2` [Compound 1298], under “3 μM, with 44 nM potentiator”, the “HBE2 Activity at 3 μM (%)” value was “++ (++ is 30-60%)”.
In the case of `COCCN(C)c1cncc(CN2C(=O)c3cccc(c3)S(=O)(=O)Nc3nc(cc(-c4c(C)cccc4C)n3)OC[C@H]2CCC(C)(C)C)n1` [Compound 1812], under setting [1], the “HBE2 Activity at 3 μM (%)” value was “+++ (+++ is >60+)”.
For `Cc1cccc(C)c1-c1cc2nc(n1)NS(=O)(=O)c1cccc(c1)C(=O)N(Cc1cncc(N3CCCC[C@H]3C)n1)[C@@H](CCC(C)(C)F)CO2` (single isomer, unassigned) [Compound 1327], the “HBE2 Activity at 3 μM (%)” value under setting [1] is reported as “+++ (+++ is >60+)”.
On the same count and under the same terms, then `Cc1cccc(C)c1-c1cc2nc(n1)NS(=O)(=O)c1cccc(c1)C(=O)N(Cc1cncc(N(C)[C@H]3C[C@@H](F)C3)n1)[C@H](CCC(C)(C)C)CO2` [Compound 1848], with “+++ (+++ is >60+)”; and `Cc1cccc(C)c1-c1cc2nc(n1)NS(=O)(=O)c1cccc(c1)C(=O)N(Cc1cncc(N3CCC(C)(C)[C@H]3C)n1)[C@H](CC(C)(C)C)CO2` (stereo in doubt) [Compound 1723], with “+++ (+++ is >60+)”.
Regarding `Cc1cccc(C)c1-c1cc2nc(n1)NS(=O)(=O)c1cccc(c1)C(=O)N(Cc1cncc(N3CCCO[C@H]4CC[C@H]43)n1)[C@H](CC(C)(C)C)CO2` (stereo in doubt) [Compound 1951], the “HBE2 Activity at 3 μM (%)” value under setting [1] is on record as “+++ (+++ is >60+)”.
For the compound `Cc1cccc(C)c1-c1cc2nc(n1)NS(=O)(=O)c1cccc(c1)C(=O)N(Cc1cncc(N3CC[C@H]3C)n1)[C@H](COC1CC1)CO2` [Compound 1918], the “HBE2 Activity at 3 μM (%)” value under setting [1] is reported as “+++ (+++ is >60+)”.
With `CC(=O)N1CC2[C@@H](CCN2c2cncc(CN3C(=O)c4cccc(c4)S(=O)(=O)Nc4nc(cc(-c5c(C)cccc5C)n4)OC[C@H]3CC(C)(C)C)n2)C1` (stereo in doubt) [Compound 1663], for the setting “3 μM, with 44 nM potentiator”, the “HBE2 Activity at 3 μM (%)” value was “+++ (+++ is >60+)”.
With `Cc1cccc(C)c1-c1cc2nc(n1)NS(=O)(=O)c1cccc(c1)C(=O)N(Cc1cncc(N(C)CC(C)C)n1)[C@H](CC1CCC1)CO2` [Compound 1712], under setting [1], the “HBE2 Activity at 3 μM (%)” value is recorded as “+++ (+++ is >60+)”. Further, the pEC50 (corrector at a range of concentrations with 44 nM potentiator) was more than 6.00. Moreover, the Emax (with 44 nM potentiator) is more than 60%.
On to `Cc1cccc(C)c1-c1cc2nc(n1)NS(=O)(=O)c1cccc(c1)C(=O)N(Cc1cncc(N(C)C3CCC3C)n1)[C@H](CC(C)(C)C)CO2` (stereo partly shown) [Compound 1785], for which the “HBE2 Activity at 3 μM (%)” value under setting [1] is on record as “+++ (+++ is >60+)”.
Same read-out and setting: to `Cc1cccc(C)c1-c1cc2nc(n1)NS(=O)(=O)c1cccc(c1)C(=O)N(Cc1cccc(N(C)C(C)C)n1)[C@H](CCC(C)(C)C)CO2` [Compound 1790] belongs “+++ (+++ is >60+)”; to `Cc1cccc(C)c1-c1cc2nc(n1)NS(=O)(=O)c1cccc(c1)C(=O)N(Cc1cncc(N(C)C3CC4(CC4)C3)n1)[C@H](CCC(C)C)CO2` [Compound 1796], “+++ (+++ is >60+)”.
On the same count and under the same terms, then `Cc1cccc(C)c1-c1cc2nc(n1)NS(=O)(=O)c1cccc(c1)C(=O)N(Cc1cncc(N(C)CC(C)(C)F)n1)[C@H](CCC(C)(C)C)CO2` [Compound 1818], with “+++ (+++ is >60+)”.
The same measure, in the same setting: to `Cc1cccc(C)c1-c1cc2nc(n1)NS(=O)(=O)c1cccc(c1)C(=O)N(Cc1cncc(N3[C@H](C)CC[C@@H]3C)n1)[C@H](CCC(C)(C)C)CO2` [Compound 1917] belongs “+++ (+++ is >60+)”.

Source of the values: patent publication US20240150377A1, “MODULATORS OF CYSTIC FIBROSIS TRANSMEMBRANE CONDUCTANCE REGULATOR” (VERTEX PHARMACEUTICALS INCORPORATED, priority 2020, published 2024).
